Data as given in ChEMBL document CHEMBL1156541 (Bioorg Med Chem, 2008).

What was measured:
[1] = Octanol-water partition coefficient, log P of the compound; format: physicochemical
[2] = target: cGMP-specific 3',5'-cyclic phosphodiesterase (Homo sapiens, UniProt O76074); assay: Inhibition of PDE5
[3] = Inhibition of PDE5

Row | Compound | IC50 [2] [nM] | further results
1 | CCCc1nc(C)c2c(=O)[nH]c(-c3cc(S(=O)(=O)N4CCN(CC)CC4)ccc3OCC)nn12 |  | logP [1]: 2.56
2 | CCCc1nn(C)c2c(=O)[nH]c(-c3cc(S(=O)(=O)N4CCN(C)CC4)ccc3OCC)nc12 |  | logP [1]: 2.51
3 | CCCc1n[nH]c2c(=O)[nH]c(-c3ccccc3)nc12 | 81.3 | 
4 | CCCCN1C(=O)c2nc(-c3cc(S(=O)(=O)N4CCN(C)CC4)ccc3OCC)[nH]c(=O)c2C1=O |  | logP [1]: 1.86
5 | CCCCN1C(=O)[C@H]2CC=C(c3cc(S(=O)(=O)N4CCN(C)CC4)ccc3OCC)CN2C1=O |  | logP [1]: 2.4
6 | CCCCN1C(=O)[C@H]2CC=C(c3cc(S(=O)(=O)N4CCN(CC)CC4)ccc3OCC)CN2C1=O |  | logP [1]: 2.77
7 | CCOc1ccc(S(=O)(=O)N2CCN(CC)CC2)cc1C1=CC[C@@H]2C(=O)N(C)CC(=O)N2C1 |  | logP [1]: 0.792
8 | CCOc1ccc([C@@H]2c3[nH]c4ccccc4c3C[C@@H]3C(=O)N(C4CCCCC4)C(=O)N23)cc1 | 7.08 | 
9 | CCCc1nn(C)c2c(=O)[nH]c(-c3ccccc3)nc12 | 4470 | 
10 | CCOc1ccc(S(=O)(=O)N2CCN(C)CC2)cc1C1=CC[C@@H]2C(=O)N(C)CC(=O)N2C1 |  | logP [1]: 0.416
11 | CCCCN1C(=O)[C@H]2CNC(c3cc(S(=O)(=O)N4CCN(CC)CC4)ccc3OCC)=NN2C1=O |  | logP [1]: 1.25
12 | CCCCN1C(=O)[C@H]2C(=O)NC(c3cc(S(=O)(=O)N4CCN(CC)CC4)ccc3OCC)=NN2C1=O |  | logP [1]: 0.574
13 | CCCCN1C(=O)C2=C(N=C(c3cc(S(=O)(=O)N4CCN(C)CC4)ccc3OCC)NC2)C1=O |  | logP [1]: 0.984
14 | CCCc1nn(C)c2c(=O)[nH]c(-c3ccccc3[N+](=O)[O-])nc12 |  | pIC50 [3]: 5.36
15 | CCCc1nn(C)c2c(=O)[nH]c(-c3ccccc3OCC3CC3)nc12 |  | pIC50 [3]: 6.02
16 | CN1CC(=O)N2[C@H](c3ccc4c(c3)OCO4)c3[nH]c4ccccc4c3C[C@@H]2C1=O |  | logP [1]: 2.36
17 | CCCc1nn(C)c2c(=O)[nH]c(-c3cc(S(=O)(=O)N4CCNCC4)ccc3OCC)nc12 |  | pIC50 [3]: 8.24
18 | CCCCN1C(=O)[C@H]2Cc3c(n(C)c4ccccc34)[C@H](c3ccc(OC)cc3)N2C1=O (relative stereo) | 2000 | 
19 | CCCCN1C(=O)[C@H]2Cc3c([nH]c4ccccc34)[C@@H](c3ccc(Cl)cc3)N2C1=O (relative stereo) | 50.1 | 
20 | CCCCN1C(=O)[C@H]2Cc3c([nH]c4ccccc34)[C@@H](c3cccnc3)N2C1=O (relative stereo) | 91.2 | 
21 | CCCCN1C(=O)[C@H]2Cc3c([nH]c4ccccc34)[C@H](c3ccc(C#N)cc3)N2C1=O (relative stereo) | 302 | 

Row | Compound | IC50 [2] [nM] | further results
22 | CCCCN1C(=O)[C@H]2Cc3c([nH]c4ccccc34)[C@@H](c3cccc(Cl)c3)N2C1=O (relative stereo) | 50.1 | 
23 | CCCCN1C(=O)[C@H]2Cc3c([nH]c4ccccc34)[C@@H](c3ccc(C#N)cc3)N2C1=O (relative stereo) | 912 | 
24 | CCCCN1C(=O)[C@H]2Cc3c([nH]c4ccccc34)[C@@H](c3ccoc3)N2C1=O (relative stereo) | 100 | 
25 | CCCCN1C(=O)[C@H]2Cc3c([nH]c4ccccc34)[C@@H](c3ccsc3)N2C1=O (relative stereo) | 30.2 | 
26 | CCCCN1C(=O)[C@H]2Cc3c([nH]c4ccccc34)[C@@H](c3ccncc3)N2C1=O (relative stereo) | 302 | 
27 | CCCCN1C(=O)[C@H]2Cc3c([nH]c4ccccc34)[C@H](c3ccccc3)N2C1=O (relative stereo) | 20 | 
28 | CCCCN1C(=O)[C@H]2Cc3c([nH]c4ccccc34)[C@H](c3ccc(Cl)cc3)N2C1=O (relative stereo) | 20 | 
29 | CCCCN1C(=O)[C@H]2Cc3c([nH]c4ccccc34)[C@@H](c3ccccc3)N2C1=O (relative stereo) | 60.3 | 
30 | CCOc1ccc([C@@H]2c3[nH]c4ccccc4c3C[C@@H]3C(=O)N(Cc4ccccc4)C(=O)N23)cc1 (relative stereo) | 3.98 | 
31 | CCOc1ccc([C@H]2c3[nH]c4ccccc4c3C[C@@H]3C(=O)N(CCN(C)C)C(=O)N23)cc1 (relative stereo) | 30.2 | 
32 | CCOc1ccc([C@H]2c3[nH]c4ccccc4c3C[C@@H]3C(=O)NC(=O)N23)cc1 (relative stereo) | 20 | 
33 | CCOc1ccc([C@@H]2c3[nH]c4ccccc4c3C[C@@H]3C(=O)N(C)C(=O)N23)cc1 (relative stereo) | 10 | 
34 | CCOc1ccc([C@H]2c3[nH]c4ccccc4c3C[C@@H]3C(=O)N(CCc4ccccn4)C(=O)N23)cc1 (relative stereo) | 6.03 | 
35 | CCOc1ccc([C@H]2c3[nH]c4ccccc4c3C[C@@H]3C(=O)N(Cc4ccccc4)C(=O)N23)cc1 (relative stereo) | 18.2 | 
36 | CCOc1ccc([C@H]2c3[nH]c4ccccc4c3C[C@@H]3C(=O)N(CCn4cccc4)C(=O)N23)cc1 (relative stereo) | 100 | 
37 | CCCCN1C(=O)[C@H]2Cc3c([nH]c4ccccc34)[C@H](c3cccc(Cl)c3)N2C1=O (relative stereo) | 50.1 | 
38 | CCCCN1C(=O)[C@H]2Cc3c([nH]c4ccccc34)[C@H](c3ccccc3OC)N2C1=O (relative stereo) | 1000 | 
39 | CCOc1ccc([C@H]2c3[nH]c4ccccc4c3C[C@@H]3C(=O)N(CC)C(=O)N23)cc1 (relative stereo) | 7.08 | 
40 | CCOc1ccc([C@H]2c3[nH]c4ccccc4c3C[C@@H]3C(=O)N(C4CCCCC4)C(=O)N23)cc1 (relative stereo) | 3.02 | 
41 | CCOc1ccc([C@H]2c3[nH]c4ccccc4c3C[C@@H]3C(=O)N(Cc4cccnc4)C(=O)N23)cc1 (relative stereo) | 20 | 
42 | CCOc1ccc([C@@H]2c3[nH]c4ccccc4c3C[C@@H]3C(=O)N(CC)C(=O)N23)cc1 (relative stereo) | 10 | 

Second part, led by results:

Row | IC50 [2] [nM] | Compound | further results
43 | 2.09 | CCCc1nn(C)c2c(=O)[nH]c(-c3cc(S(=O)(=O)N4CCC(C(N)=O)CC4)ccc3OCC)nc12 | 
44 | 1000 | CCCc1nn(C)c2c(=O)[nH]c(-c3ccccc3O)nc12 | 
45 | 1.91 | CCCc1nn(C)c2c(=O)[nH]c(-c3cc(S(=O)(=O)N4CCN(CCO)CC4)ccc3OCC)nc12 [LODENAFIL] | 
